“Also recorded” adds a separate entry of the source.

One series relates to v-Src/NIH 3T3 tumors. The series is described as follows: Antitumor activity, v-Src-transformed NIH 3T3 tumors in nude mice. In kind it is in vivo. Particulars: for inhibition of growth of v-src transformed NIH 3T3 tumors (in words): 1 mg/Kg/day intraperitoneally. The source says: Antitumor Activity in the Nude Mouse Tumor Xenograft Model. Nude mice and C57 BL-6 black mice (National Cancer Institute, Bethesda, Md.) were maintained in accordance with the Institutional Animal Care and Use Committee (IACUC) procedures and guidelines. v-Src- and oncogenic H-Ras-transformed NIH 3T3, A549, MDA-MB-468 and Calu-1 cells were harvested, resuspended in PBS and injected s.c. into the right and left flank (10×10^6 cells per flank) of 8 week old female nude mice as reported previously (Sun, J. et al. Cancer Res., 1999, 59:4919-4926). Similarly, murine B16-F10 Melanoma cells were injected s.c. into the right and left flank (10^6 cells per flank) of C57 black mice. […] […] The tumor volumes were determined by measuring the length (l) and the width (w) and calculating the volume (V=1w^2/2) as described previously (Sun, J. et al. Cancer Res., 1999, 59:4919-4926). Statistical significance between control and treated animals were evaluated by using Student's t-test. For the mouse survival experiments, C57 BL-6 black mice were implanted s.c. with B16-F10 cells (10^5 to 10^6 cells per flank). […] Percent surviving mice was determined by monitoring the death of mice until all mice died. Two experiments of 12 animals each (6 control and 6 treated with JSI-124) were carried out. For statistical analysis: for each of the two experiments, mice receiving JSI-124 were compared to those receiving vehicle control with respect to survival using the permutation log rank test as implemented in the statistical software package, ProcStatXact (p-values are two sided and exact).

The subject of another series is phosphotyrosine STAT3. The series is described as follows: Western blotting for phosphotyrosine STAT3 in cancer cell lines. In kind it is cell-based, human. Particulars: A-549 cells; for inhibition of phospho STAT3 levels (in words): 0-10 μM; for IC50: Western blotting, read-out: IC50 for phospho-STAT3. As for the experimental part: (§1) Western Blotting. Treated cell samples were lysed in 30 mM Hepes, pH 7.5, 10 mM NaCl, 5 mM MgCl2, 25 mM NaF, 1 mM EGTA, 1% Triton-X-100, 10% glycerol, 2 mM sodium orthovanadate, 10 μg/ml aprotinin, 10 μg/ml soybean trypsin inhibitor, 25 μg/ml leupeptin, 2 mM PMSF, and 6.4 mg/ml p-nitrophenylphosphate. Phospho-STAT3, phospho-AKT, phospho-MEK, and phospho-p42/p44 MAPK antibodies were obtained from Cell Signaling Technologies, Cambridge, Mass. Antibodies to STAT3, JAK2, and phospho-INK were purchased from Santa Cruz Biotechnology, Santa Cruz, Calif. Phospho-JAK2 antibody came from Upstate Biotechnology, Lake Placid, N.Y. Membranes were blocked in either 5% milk in PBS, pH 7.4, containing 0.1% Tween-20 (PBS-T) or 1% BSA in TBS, pH 7.5, containing 0.1% Tween-20 (TBS-T). Phospho-specific antibodies (excepting P-MAPK and P-JNK) were incubated in 1% BSA in TBS-T while all other antibodies were diluted in 5% milk in PBS-T for either 2 hr at room temperature or overnight at 4° C. HRP-conjugated secondary antibodies (Jackson ImmunoResearch) were diluted in 5% milk in either PBS-T or TBS-T at 1:1000 dilution for one hour at room temperature. Western blots were visualized using enhanced chemiluminescence as described previously (Blaskovich, M. A. et al. Nat. Biotechnol., 2000, 18:1065-1070).
Immunoprecipitation of STAT3. A549 cells were treated for 4 hr with vehicle or JSI-124, then lysed in 150 mM Hepes, pH 7.5, 150 mM NaCl, 1 mM EDTA, 0.5% Nonidet P-40 (NP-40), 10% glycerol, 5 mM NaF, 1 mM DTT, 1 mM PMSF, 2 mM sodium orthovanadate, and 5 μg/ml leupeptin. Sample lysates were collected and cleared, then 500 μg of lysate was immunoprecipitated with 50 ng STAT3 antibody overnight at 4° C. then rocked with 25 μl Protein A/G PLUS agarose (Santa Cruz Biotechnology) for 1 hr at 4° C. Samples were washed four times with lysis buffer then boiled in 2×SDS-PAGE sample buffer and run on 10% SDS-PAGE gel. Protein was transferred to nitrocellulose and then blotted as above for both phospho-specific STAT3 and STAT3.
(In general: A western blot detects proteins with antibodies after separation by electrophoresis.)

The next series concerns phosphotyrosine JAK2. The series is described as follows: Western blotting for phosphotyrosine JAK2. It is filed as cell-based, human. Particulars: A-549 cells; for inhibition of phospho JAK2 levels (in words): 0-10 μM; for IC50: Western blotting, read-out: IC50 for phospho-JAK2. As for the experimental part: as §1
Series [1] is described as follows: Tolerability observations in treated mice. It is filed as in vivo. The source says: Antitumor Activity in the Nude Mouse Tumor Xenograft Model. Nude mice and C57 BL-6 black mice (National Cancer Institute, Bethesda, Md.) were maintained in accordance with the Institutional Animal Care and Use Committee (IACUC) procedures and guidelines. v-Src- and oncogenic H-Ras-transformed NIH 3T3, A549, MDA-MB-468 and Calu-1 cells were harvested, resuspended in PBS and injected s.c. into the right and left flank (10×10^6 cells per flank) of 8 week old female nude mice as reported previously (Sun, J. et al. Cancer Res., 1999, 59:4919-4926). Similarly, murine B16-F10 Melanoma cells were injected s.c. into the right and left flank (10^6 cells per flank) of C57 black mice. When tumors reached about 150 mm^3, animals were randomized (five animals per group; two tumors per animal) and dosed i.p. with 0.2 ml once daily. […] The tumor volumes were determined by measuring the length (l) and the width (w) and calculating the volume (V=1w^2/2) as described previously (Sun, J. et al. Cancer Res., 1999, 59:4919-4926). Statistical significance between control and treated animals were evaluated by using Student's t-test. For the mouse survival experiments, C57 BL-6 black mice were implanted s.c. with B16-F10 cells (10^5 to 10^6 cells per flank). On day 5 after implantation the mice were randomized (6 animals per group) and treated with either vehicle or JSI-124 (1 mg/Kg/day) for 25 days. Percent surviving mice was determined by monitoring the death of mice until all mice died. Two experiments of 12 animals each (6 control and 6 treated with JSI-124) were carried out. For statistical analysis: for each of the two experiments, mice receiving JSI-124 were compared to those receiving vehicle control with respect to survival using the permutation log rank test as implemented in the statistical software package, ProcStatXact (p-values are two sided and exact).

What is called IC50 is the midpoint of a concentration-inhibition curve. As to `CC(=O)OC(C)(C)/C=C/C(=O)[C@](C)(O)[C@H]1[C@H](O)C[C@@]2(C)[C@@H]3CC=C4[C@@H](C[C@H](O)C(=O)C4(C)C)[C@]3(CO)C(=O)C[C@]12C` [cucurbitacin A], the “inhibition of growth of v-src transformed NIH 3T3 tumors (in words)” value (from here on “inhibition of growth … (in words)”) with v-Src/NIH 3T3 tumors is “did not significantly inhibit tumor growth”. Besides, the “inhibition of growth … (in words)” value in the series on v-Src/NIH 3T3 tumors (listed as curbitacin A) is on record as “did not”. The “inhibition of growth of v-Src/NIH 3T3 tumors” value in the series with v-Src/NIH 3T3 tumors (1 mg/kg/day i.p.) is on record as 16%. Moreover, in the series on phosphotyrosine STAT3, the “inhibition of phospho STAT3 levels (in words)” value is “not phospho STAT3 levels; also recorded: no phospho STAT3 levels” and the IC50 is above 10 µM. Further, in the series on phosphotyrosine JAK2, the “inhibition of phospho JAK2 levels (in words)” value is given as “inhibits only phospho JAK2” and the IC50 came out at 1 µM.
Take `CC(=O)OC(C)(C)/C=C/C(=O)[C@](C)(O)[C@H]1[C@H](O)C[C@@]2(C)[C@@H]3CC=C4[C@H](C[C@H](O)C(=O)C4(C)C)[C@]3(C)C(=O)C[C@]12C` [cucurbitacin B]: the “inhibition of growth of v-Src/NIH 3T3 tumors, 0.2 mpk/day” value with v-Src/NIH 3T3 tumors (0.2 mpk/day) came to 40%. Also, the “additional loss of inhibitory activity against phosphotyrosine-STAT3 versus cucurbitacin E” value in the series with phosphotyrosine STAT3 is recorded as “five-fold”. Besides, the values for the IC50 in the series on phosphotyrosine STAT3 and in the series with phosphotyrosine JAK2 were 4 µM and 0.2 µM, respectively. The “toxicity in tumor-bearing nude mice at 1 mpk” value in series [1] (1 mg/kg/day i.p.) was “toxic”. Besides, the “toxicity in tumor-bearing nude mice at 0.2 mpk/day” value in series [1] (0.2 mpk/day (200 μg/kg/day)) is “not toxic”.
On to `CC(C)(O)/C=C/C(=O)[C@](C)(O)[C@H]1[C@H](O)C[C@@]2(C)[C@@H]3CC=C4[C@@H](C[C@H](O)C(=O)C4(C)C)[C@]3(C)C(=O)C[C@]12C` [cucurbitacin D], for which the “reduction of activity against phospho STAT3 versus cucurbitacin B” value in the series on phosphotyrosine STAT3 is on record as 2 fold. Moreover, in the series with phosphotyrosine JAK2, the “change of activity against phospho JAK2 versus cucurbitacin B” value is “no effects”.
As to `CC(=O)OC(C)(C)/C=C/C(=O)[C@](C)(O)[C@H]1[C@H](O)C[C@@]2(C)[C@@H]3CC=C4[C@@H](C=C(O)C(=O)C4(C)C)[C@]3(C)C(=O)C[C@]12C` [cucurbitacin E], in the series with v-Src/NIH 3T3 tumors, the “inhibition of growth … (in words)” value is on record as “inhibit tumor growth”. Further, in the series with phosphotyrosine STAT3, the “loss of activity against phospho-STAT3 versus cucurbitacin I” value is recorded as “four-fold”. Further, the IC50 was 0.8 µM in the series on phosphotyrosine STAT3 and 0.2 µM in the series on phosphotyrosine JAK2.
Take `CC(C)(O)CCC(=O)[C@](C)(O)[C@H]1[C@H](O)C[C@@]2(C)[C@@H]3CC=C4[C@@H](C[C@H](O)C(=O)C4(C)C)[C@]3(C)C(=O)C[C@]12C` [tetrahydro-cucurbitacin I]: the “inhibition of growth … (in words)” value in the series with v-Src/NIH 3T3 tumors is reported as “inhibit tumor growth”. The “change of activity against phospho-STAT3 versus cucurbitacin I” value with phosphotyrosine STAT3 was “reduction of activity against phospho-STAT3 and phospho JAK2”. Besides, the “change of activity against phospho JAK2 versus cucurbitacin I” value in the series with phosphotyrosine JAK2 is “reduction of activity against phospho-STAT3 and phospho JAK2”.
For the compound cucurbitacin Q, the “inhibition of growth … (in words)” value in the series on v-Src/NIH 3T3 tumors is on record as “inhibit tumor growth; also recorded: as potent as curcubatacin I at inhibiting tumor growth”. Further, in the series on v-Src/NIH 3T3 tumors (listed as Cucurbitacin Q), the “inhibition of growth … (in words)” value is on record as “as potent as cucurbatacin I at inhibiting tumor growth”. Further, in the series with phosphotyrosine STAT3, the “gain in activity against STAT3 activation versus cucurbitacin B” value is given as 2 fold, the “inhibition of phospho STAT3 levels (in words)” value is recorded as “inhibits phospho STAT3” and the concentration for half-maximal inhibition (IC50) is 2 µM. In addition, in the series on phosphotyrosine JAK2, the “inhibition of phospho JAK2 levels (in words)” value was “not phospho JAK2 levels” and the IC50 was above 10 µM.

The record behind these values is patent US8691799B2, “Materials and methods for treatment of cancer and identification of anti-cancer compounds” (priority 2001, dated 2014).
